From ChEMBL document CHEMBL3769350, “Synthesis and biological evaluation of piperazine group-linked bivalent -carbolines as potential antitumor agents” (Medchemcomm, 2015)
The source made the active and inactive calls. No cut-off for these calls is given here.

Tests used:
A-375 = assay: Cytotoxicity against human A375 cells by MTT assay; format: functional, cell-based
MCF7 = assay: Cytotoxicity against human MCF7 cells by MTT assay; format: functional, cell-based
[1] = Cytotoxicity against human ECA109 cells by MTT assay; format: functional, cell-based; conditions: ECa-109
HepG2 = assay: Cytotoxicity against human HepG2 cells by MTT assay; format: functional, cell-based
769-P = assay: Cytotoxicity against human 769-P cells by MTT assay; format: functional, cell-based
[2] = Cytotoxicity against human BGC823 cells by MTT assay; format: functional, cell-based; conditions: BGC-823
CWR22R = assay: Cytotoxicity against human 22Rv1 cells by MTT assay; format: functional, cell-based
[3] = Cytotoxicity against mouse LLC cells by MTT assay; format: functional, cell-based; conditions: Lewis lung carcinoma
HT-29 = assay: Cytotoxicity against human HT-29 cells by MTT assay; format: functional, cell-based
[4] = Cytotoxicity against human SKOV3 cells by MTT assay; format: functional, cell-based; conditions: SK-OV-3
Chorioallantoic membrane = assay: Antiangiogenic activity in chicken chorioallantoic membrane at 200 uM after 48 hrs by microscopic analysis; format: functional; conditions: Gallus gallus

Structure (SMILES) | IC50 (A-375) [µM] | IC50 (MCF7) [µM] | IC50 [1] [µM] | IC50 (HepG2) [µM] | IC50 (769-P) [µM] | IC50 [2] [µM] | IC50 (CWR22R) [µM] | IC50 [3] [µM] | IC50 (HT-29) [µM] | IC50 [4] [µM] | inhibition (Chorioallantoic membrane)
c1ccc(CCCn2c3ccccc3c3cc(CN4CCN(Cc5cc6c7ccccc7n(CCCc7ccccc7)c6c(-c6ccccc6)n5)CC4)nc(-c4ccccc4)c32)cc1 | > 100 | > 100 | > 100 | > 100 | > 100 | > 100 | > 100 | > 100 | > 100 | > 100 | –
COc1ccc(-c2nc(CN3CCN(Cc4cc5c([nH]c6ccccc65)c(-c5ccc(OC)cc5)n4)CC3)cc3c2[nH]c2ccccc23)cc1 | > 100 | > 100 | > 100 | > 100 | > 100 | > 100 | > 100 | > 100 | > 100 | > 100 | –
COc1ccc(/C=C\c2cc(OC)c(OC)c(OC)c2)cc1OP(=O)(O)O | – | – | – | – | – | – | – | – | – | – | Active
Cc1nc(CN2CCN(Cc3cc4c5ccccc5n(Cc5cccc(Cl)c5)c4c(C)n3)CC2)cc2c3ccccc3n(Cc3cccc(Cl)c3)c12 | 32.4 | 43.7 | 57.6 | 38.1 | 45.8 | 40.8 | 40.8 | 12 | 25.2 | 51.4 | –
COc1ccc(-c2nc(CN3CCN(Cc4cc5c6ccccc6n(CCCc6ccccc6)c5c(-c5ccc(OC)cc5)n4)CC3)cc3c4ccccc4n(CCCc4ccccc4)c23)cc1 | > 100 | > 100 | > 100 | > 100 | > 100 | > 100 | > 100 | > 100 | > 100 | > 100 | –
Cn1c2ccccc2c2cc(CN3CCN(Cc4cc5c6ccccc6n(C)c5c(-c5ccccc5)n4)CC3)nc(-c3ccccc3)c21 | 40.9 | > 100 | > 100 | > 100 | > 100 | > 100 | 54.3 | 34.5 | > 100 | > 100 | –
COc1cc(-c2nc(CN3CCN(Cc4cc5c6ccccc6n(C)c5c(-c5cc(OC)c(OC)c(OC)c5)n4)CC3)cc3c4ccccc4n(C)c23)cc(OC)c1OC | 64.2 | 65.6 | 26.3 | > 100 | > 100 | 45.3 | > 100 | 39 | > 100 | 18.9 | –
CCCCn1c2ccccc2c2cc(CN3CCN(Cc4cc5c6ccccc6n(CCCC)c5c(-c5cc(OC)c(OC)c(OC)c5)n4)CC3)nc(-c3cc(OC)c(OC)c(OC)c3)c21 | 36 | 12.5 | 18.3 | 7.26 | 15.6 | 26.6 | 6.82 | 19.8 | 13.5 | 7.11 | –
c1ccc(Cn2c3ccccc3c3cc(CN4CCN(Cc5cc6c7ccccc7n(Cc7ccccc7)c6cn5)CC4)ncc32)cc1 | > 100 | > 100 | > 100 | 65.4 | > 100 | > 100 | > 100 | 79.8 | 36.8 | 46.5 | –
Fc1ccc(Cn2c3ccccc3c3cc(CN4CCN(Cc5cc6c7ccccc7n(Cc7ccc(F)cc7)c6cn5)CC4)ncc32)cc1 | 46 | 72.8 | 24.7 | 76.3 | 29 | 85.6 | 60.6 | 15.9 | 18.3 | 8.43 | –
COc1ccc(-c2nc(CN3CCN(Cc4cc5c6ccccc6n(Cc6ccccc6)c5c(-c5ccc(OC)c(OC)c5)n4)CC3)cc3c4ccccc4n(Cc4ccccc4)c23)cc1OC | > 100 | > 100 | > 100 | > 100 | > 100 | > 100 | > 100 | 36.4 | > 100 | > 100 | –
CCCCn1c2ccccc2c2cc(CN3CCN(Cc4cc5c6ccccc6n(CCCC)c5c(-c5ccc(OC)cc5)n4)CC3)nc(-c3ccc(OC)cc3)c21 | 19.6 | 20.6 | 24.7 | 25.7 | 16.6 | 28.8 | 27.6 | 27.4 | 11.8 | 24.6 | –
COc1ccc(-c2nc(CN3CCN(Cc4cc5c6ccccc6n(Cc6ccccc6)c5c(-c5ccc(OC)cc5)n4)CC3)cc3c4ccccc4n(Cc4ccccc4)c23)cc1 | > 100 | > 100 | > 100 | > 100 | > 100 | > 100 | > 100 | 40.4 | > 100 | > 100 | –
